pKi: −log10 of the molar value.
Target: T1, recombinant human NK3 receptor (Homo sapiens, UniProt P29371)
T1 construct: expressed in transfected cells; host or cells: HEK293 cells (transient expression), membranes
T1 sequence (P29371 1-465): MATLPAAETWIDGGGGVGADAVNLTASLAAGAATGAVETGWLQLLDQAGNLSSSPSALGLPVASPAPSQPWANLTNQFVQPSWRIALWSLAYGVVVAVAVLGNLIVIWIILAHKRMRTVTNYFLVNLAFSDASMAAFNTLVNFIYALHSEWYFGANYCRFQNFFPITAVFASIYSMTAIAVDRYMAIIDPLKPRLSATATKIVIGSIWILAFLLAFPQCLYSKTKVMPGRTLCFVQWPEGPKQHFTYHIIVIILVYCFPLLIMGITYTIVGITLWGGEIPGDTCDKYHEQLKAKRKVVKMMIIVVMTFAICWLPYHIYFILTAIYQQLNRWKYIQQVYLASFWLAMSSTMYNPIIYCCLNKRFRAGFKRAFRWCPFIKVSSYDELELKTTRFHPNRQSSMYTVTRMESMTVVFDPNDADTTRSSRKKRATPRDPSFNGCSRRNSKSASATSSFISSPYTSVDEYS
Assay: [3H]SR142801 competition binding assay, hNK3 receptor binding
Details: [3H]SR142801 displacement; membranes from HEK293 cells transiently expressing recombinant human NK3 receptor; Ki by Cheng-Prussoff from IC50
Method: The compounds were investigated in accordance with the tests given hereinafter. [^3H]SR142801 competition binding assay hNK3 receptor binding experiment were performed using [^3H]SR142801 (Catalog No. TRK1035, specific activity: 74.0 Ci/mmol, Amersham, GE Healthcare UK limited, Buckinghamshire, UK) and membrane isolated from HEK293 cells transiently expressing recombinant human NK3 receptor. After thawing, the membrane homogenates were centrifuged at 48,000×g for 10 min at 4° C., the pellets were resuspended in the 50 mM Tris-HCl, 4 mM MnCl2, 1 μM phosphoramidon, 0.1% BSA binding buffer at pH 7.4 to a final assay concentration of 5 μg protein/well. For inhibition experiments, membranes were incubated with [^3H]SR142801 at a concentration equal to KD value of radioligand and 10 concentrations of the inhibitory compound (0.0003-10 μM) (in a total reaction volume of 500 μl) for 75 min at room temperature (RT). At the end of the incubation, membranes were filtered onto unitfilter (96-well white microplate with bonded GF/C filter preincubated 1 h in 0.3% PEI+0.3% BSA, Packard BioScience, Meriden, Conn.) with a Filtermate 196 harvester (Packard BioScience) and washed 4 times with ice-cold 50 mM Tris-HCl, pH 7.4 buffer. Nonspecific binding was measured in the presence of 10 μM SB222200 for both radioligands. The radioactivity on the filter was counted (5 min) on a Packard Top-count microplate scintillation counter with quenching correction after addition of 45 μl of microscint 40 (Can berra Packard S. A., Zürich, Switzerland) and shaking for 1 h. Inhibition curves were fitted according to the Hill equation: y=100/(1+(x/IC50)^nH), where nH=slope factor using Excel-fit 4 software (Microsoft). IC50 values were derived from the inhibition curve and the affinity constant (Ki) values were calculated using the Cheng-Prussoff equation Ki=IC50/(1+[L]/KD) where [L] is the concentration of radioligand and KD is its dissociation constant at the receptor, derived from the saturation isotherm. All experiments were performed in duplicate and the mean±standard error (SEM) of the individual Ki values was calculated.

Row | pKi | Compound
1 | 8.64 | Cc1nc(-c2ccc(C(=O)N3CC[C@H]([C@H](C)Oc4ccc(Cl)cn4)[C@@H](c4ccc(Cl)cc4)C3)cc2)no1 [Example 12, {(3S,4S)-3-(4-Chloro-phenyl)-4-[(S)-1-(5-chloro-pyridin-2-yloxy)-ethyl]-piperidin-1-yl}-[4-(5-methyl-[1,2,4]oxadiazol-3-yl)-phenyl]-methanone]
2 | 8.24 | CC1(C(=O)N2CCC(C(=O)N3CC[C@H](COc4ccc(Cl)cn4)[C@@H](c4ccc(F)c(F)c4)C3)CC2)CC1 (racemic) [Example 32, {4-[(3SR,4SR)-4-(5-Chloro-pyridin-2-yloxymethyl)-3-(3,4-difluoro-phenyl)-piperidine-1-carbonyl]-piperidin-1-yl}-(1-methyl-cyclopropyl)-methanone]
3 | 8.33 | C[C@H](Oc1ccc(C(F)(F)F)cn1)[C@H]1CCN(C(=O)N2CCN(S(C)(=O)=O)CC2)C[C@@H]1c1ccc(Cl)cc1 [Example 21, {(3S,4S)-3-(4-Chloro-phenyl)-4-[(S)-1-(5-trifluoromethyl-pyridin-2-yloxy)-ethyl]-piperidin-1-yl}-(4-methanesulfonyl-piperazin-1-yl)-methanone]
4 | 8.00 | N#Cc1ccc(N2CCC(C(=O)N3CC[C@H](COc4ccc(Cl)cn4)[C@@H](c4ccccc4)C3)CC2)nc1 [Example 47, 4-[(3S,4S)-4-(5-Chloro-pyridin-2-yloxymethyl)-3-phenyl-piperidine-1-carbonyl]-3,4,5,6-tetrahydro-2H-[1,2′]bipyridinyl-5′-carbonitrile]
5 | 8.59 | C[C@H](Oc1ccc(Cl)cn1)[C@H]1CCN(C(=O)N2CCN(S(C)(=O)=O)CC2)C[C@@H]1c1ccc(Cl)cc1 [Example 14, {(3S,4S)-3-(4-Chloro-phenyl)-4-[(S)-1-(5-chloro-pyridin-2-yloxy)-ethyl]-piperidin-1-yl}-(4-methanesulfonyl-piperazin-1-yl)-methanone]
6 | 8.80 | C[C@H](Oc1ccc(C(F)(F)F)cn1)[C@H]1CCN(C(=O)C2CCN(C(=O)C3(C)CC3)CC2)C[C@@H]1c1ccc(Cl)cc1 [Example 16, (4-{(3S,4S)-3-(4-Chloro-phenyl)-4-[(S)-1-(5-trifluoromethyl-pyridin-2-yloxy)-ethyl]-piperidine-1-carbonyl}-piperidin-1-yl)-(1-methyl-cyclopropyl)-methanone]
7 | 8.39 | C[C@H](Oc1ccc(Cl)cn1)[C@H]1CCN(C(=O)C2CCN(C(=O)C3(C)CC3)CC2)C[C@@H]1c1ccc(Cl)cc1 (racemic) [Example 5, (4-{(3SR, 4SR)-3-(4-Chloro-phenyl)-4-[(SR)-1-(5-chloro-pyridin-2-yloxy)-ethyl]-piperidine-1-carbonyl}-piperidin-1-yl)-(1-methyl-cyclopropyl)-methanone]
8 | 9.52 | C[C@H](Oc1ccc(C#N)cn1)[C@H]1CCN(C(=O)C2CCN(c3ccc(C#N)cn3)CC2)C[C@@H]1c1ccc(Cl)cc1 [Example 27, 4-{(3S,4S)-3-(4-Chloro-phenyl)-4-[(S)-1-(5-cyano-pyridin-2-yloxy)-ethyl]-piperidine-1-carbonyl}-3,4,5,6-tetrahydro-2H-[1,2′]bipyridinyl-5′-carbonitrile]
9 | 9.70 | C[C@H](Oc1ccc(C(F)(F)F)cn1)[C@H]1CCN(C(=O)C2CCN(c3ccc(C#N)cn3)CC2)C[C@@H]1c1ccc(Cl)cc1 [Example 20, 4-{(3S,4S)-3-(4-Chloro-phenyl)-4-[(S)-1-(5-trifluoromethyl-pyridin-2-yloxy)-ethyl]-piperidine-1-carbonyl}-3,4,5,6-tetrahydro-2H-[1,2′]bipyridinyl-5′-carbonitrile]
10 | 8.96 | C[C@H](Oc1ccc(C#N)cn1)[C@H]1CCN(C(=O)C2CCN(C(=O)C3(C)CC3)CC2)C[C@@H]1c1ccc(Cl)cc1 [Example 23, 6-((S)-1-{(3S,4S)-3-(4-Chloro-phenyl)-1-[1-(1-methyl-cyclopropanecarbonyl)-piperidine-4-carbonyl]-piperidin-4-yl}-ethoxy)-nicotinonitrile]
11 | 8.92 | Cc1noc(-c2ccc(C(=O)N3CC[C@H]([C@H](C)Oc4ccc(C(F)(F)F)cn4)[C@@H](c4ccc(Cl)cc4)C3)cc2)n1 [Example 18, {(3S,4S)-3-(4-Chloro-phenyl)-4-[(S)-1-(5-trifluoromethyl-pyridin-2-yloxy)-ethyl]-piperidin-1-yl}-[4-(3-methyl-[1,2,4]oxadiazol-5-yl)-phenyl]-methanone]
12 | 9.52 | C[C@H](Oc1ccc(Cl)cn1)[C@H]1CCN(C(=O)C2CCN(c3ccc(C#N)cn3)CC2)C[C@@H]1c1ccc(Cl)cc1 [Example 13, 4-{(3S,4S)-3-(4-Chloro-phenyl)-4-[(S)-1-(5-chloro-pyridin-2-yloxy)-ethyl]-piperidine-1-carbonyl}-3,4,5,6-tetrahydro-2H-[1,2′]bipyridinyl-5′-carbonitrile]
13 | 8.77 | C[C@H](Oc1ccc(F)c(F)c1)[C@H]1CCN(C(=O)C2CCN(c3ccc(C#N)cn3)CC2)C[C@@H]1c1ccc(Cl)cc1 [Example 54, 4-{(3S,4S)-3-(4-Chloro-phenyl)-4-[(S)-1-(3,4-difluoro-phenoxy)-ethyl]-piperidine-1-carbonyl}-3,4,5,6-tetrahydro-2H-[1,2′]bipyridinyl-5′-carbonitrile]
14 | 8.89 | N#Cc1ccc(N2CCC(C(=O)N3CC[C@H](COc4ccc(Cl)cn4)[C@@H](c4ccc(F)c(F)c4)C3)CC2)nc1 (relative stereo) [Example 33]
15 | 8.08 | Cc1noc(-c2ccc(C(=O)N3CC[C@H](COc4ccc(Cl)cn4)[C@@H](c4ccc(F)c(F)c4)C3)cc2)n1 (racemic) [Example 31, [(3SR,4SR)-4-(5-Chloro-pyridin-2-yloxymethyl)-3-(3,4-difluoro-phenyl)-piperidin-1-yl]-[4-(3-methyl-[1,2,4]oxadiazol-5-yl)-phenyl]-methanone]
16 | 8.70 | Cc1ccc(O[C@@H](C)[C@H]2CCN(C(=O)C3CCN(c4ccc(C#N)cn4)CC3)C[C@@H]2c2ccc(Cl)cc2)nc1 [Example 58, 4-{(3S,4S)-3-(4-Chloro-phenyl)-4-[(S)-1-(5-methyl-pyridin-2-yloxy)-ethyl]piperidine-1-carbonyl}-3,4,5,6-tetrahydro-2H-[1,2′]bipyridinyl-5′-carbonitrile]
17 | 8.85 | CC(Nc1ccc(C#N)cn1)[C@H]1CCN(C(=O)C2CCN(c3ccc(C#N)cn3)CC2)C[C@@H]1c1ccc(Cl)cc1 (mixture of isomers) [Example 68, 4-{(3S,4S)-3-(4-Chloro-phenyl)-4-[(SR)-1-(5-cyano-pyridin-2-ylamino)-ethyl]-piperidine-1-carbonyl}-3,4,5,6-tetrahydro-2H-[1,2′]bipyridinyl-5′-carbonitrile]
18 | 8.85 | Cc1ccc(O[C@@H](C)[C@H]2CCN(C(=O)C3CCN(c4ccc(C#N)cn4)CC3)C[C@@H]2c2ccc(Cl)cc2)cc1 [Example 57, 4-[(3S,4S)-3-(4-Chloro-phenyl)-4-((S)-1-p-tolyloxy-ethyl)-piperidine-1-carbonyl]-3,4,5,6-tetrahydro-2H-[1,2′]bipyridinyl-5′-carbonitrile]
19 | 9.22 | C[C@H](Oc1ccc(F)cn1)[C@H]1CCN(C(=O)C2CCN(c3ccc(C#N)cn3)CC2)C[C@@H]1c1ccc(Cl)cc1 [Example 52, 4-{(3S,4S)-3-(4-Chloro-phenyl)-4-[(S)-1-(5-fluoro-pyridin-2-yloxy)-ethyl]-piperidine-1-carbonyl}-3,4,5,6-tetrahydro-2H-[1,2′]bipyridinyl-5′-carbonitrile]
